# Data reported in patent US6911474B2, “Methods, compounds, and compositions for reducing body fat and modulating fatty acid metabolism” (The Regents of the University of California, priority 2001, dated 2005).
# Values joined by “and” are separate entries in the source; they are usually repeats but may differ in a detail not shown here. Identical values can stand only once.
# What was measured:
# [1] = Circulating OEA level after i.p. administration (HPLC/MS); format: in vivo; settings: rat, plasma, ip, 1 hr after 5 mg per kg, read-out: circulating OEA levels
# Procedure: HPLC/MS analyses. Plasma was prepared from blood obtained by cardiac puncture (Giuffrida et al., Anal. Biochem., 280:87-93 (2000)) and CSF was collected from the cisterna magna using a 27G ½ needle (Precisionglide, USA). FAEs and NAPE were extracted from tissues with methanol/chloroform and fractionated by column chromatography (Giuffrida et al., “Lipid Second Messengers” (ed. Laychock, S. G. & Rubin, R. P.) 113-133 (CRC Press LLC, Boca Raton, Fla., 1998)). FAEs were quantified by HPLC/MS, using an isotope dilution method (Giuffrida et al., Anal. Biochem., 280:87-93 (2000)). Individual NAPE species were identified and quantified by HPLC/MS, using an external standard method (Calignano et al., Nature, 408:96-101 (2000)).
# OEA elicits hypophagia at physiologically relevant doses. […] Thus, the concentrations reached by OEA in blood during starvation can be sufficient to elicit notable behavioral responses.
# Hepatocyte = test: [14C]oleate oxidation to ketone bodies in hepatocytes; format: cell-based, rat
# Procedure: Compounds can also be assayed for their effect on fatty acid metabolism. The effect of the candidate compound on fatty acid metabolism can be measured by measurements of fatty acid oxidation in primary cultures of liver cells. Hepatocytes may be used to determine the rate of oleate oxidation to ketone bodies and carbon dioxide. Such cells can be isolated from adult rat liver by enzymatic digestion as described by Beynen et al. in Diabetes 28:828 (1979). Cells typically are cultured in suspension and incubated in Krebs-Henseleit's bicarbonate medium supplemented with bovine serum albumin and glucose as described by Guzmán & Geelen, Biochem. J. 287:487(1992). The protein concentration of the cultured cells can be determined and cells seeded in 2 ml media so that 4-6 mg protein per ml is present in the reaction mixture. Cells can be incubated for 10 minutes at 37° C. with [^14C]-oleic acid (Arnersham), in the presence or absence of 10 μM OEA, reactions may be stopped with 200 μl 2M perchloric acid and acid-soluble products extracted with chloroform/methanol/water (5:1:1, vol:vol:vol). The aqueous phase can be removed and washed twice more. Protein concentration can be determined using a Lowry assay. The rate of oleate conversion into ketone bodies may be expressed as rnmol of oleate oxidized per hour per mg protein and may be determined using liquid scintillation counting. […]
# [2] = Food intake in capsaicin-treated rats (sensory fibers destroyed); format: in vivo, rat; settings: OEA 10 mg per kg, i.p., FIG. 6a,c
# Excerpt: Chemicals. FAEs and [^2H4] FAEs were synthesized in the laboratory (Giuffrida et al., “Lipid Second Messengers” (ed. Laychock, S. G. & Rubin, R. P.) 113-133 (CRC Press LLC, Boca Raton, Fla., 1998)); 1,2-dioleyl-sn-glycero-phosphoethanolamine-N-oleyl was purchased from Avanti Polar Lipids (Alabaster, Ala.); SR141716A was provided by RBI (Natick, Mass.) as part of the Chemical Synthesis Program of the NIMH (N01MH30003); SR144528 was a generous gift of Sanofi Recherche; all other drugs were from Tocris (Ballwin, Mo.) or Sigma (Saint Louis, Mo.). FAE were dissolved in dimethylsulphoxide (DMSO) and administered in 70% DMSO in sterile saline (acute treatments) or 5% Tween 80/5% propylenglycol in sterile saline (subchronic treatments) (1 ml per kg, i.p.). Capsaicin was administered in 10% Tween 80/10% ethanol/80% saline; SR141716A, SR144528, CCK-8 and CP-93129 in 5% Tween 80/5% propylenglycol/90% saline (1 ml per kg, i.p.).
# These findings support the hypothesis that OEA causes hypophagia by acting at a peripheral site, and that sensory fibers are required for this effect.
# [3] = Subchronic administration: food intake, body weight and water intake; format: in vivo, rat; settings: 5 mg per kg, i.p., daily for seven days
# Procedure: Feeding experiments. Acute experiments. Food intake was measured in 24-h food-deprived rats (Navarro et al., J. Neurochem., 67:1982-1991 (1996)), administering drugs 15 min before food presentation. Subchronic experiments. Ad libitum fed rats received vehicle injections for three days. On day four, the animals were divided in two equal groups and gave them daily injections of vehicle or OEA (5 mg per kg at 1900 h) for 7 consecutive days, while measuring body weight, food intake and water intake.
# OEA was subchronically administered to rats.
smiles,measurement,setting,value
"CCCCCCCC/C=C\CCCCCCCC(=O)NCCO [OEA, Oleoylethanolamide]",concentration at 1 hr,[1],16.1 ± 2.6 nM
same,Stimulatory effect of 10 μM OEA (%) on [14C]oleate oxidation to ketone bodies,"Hepatocyte; Hepatocyte, 10 μM, 10 min incubation",21+−6% and 21 ± 6%
same,fatty acid oxidation in words,Hepatocyte; primary cultures of liver cells,significantly stimulates
same,food intake response of capsaicin-treated rats,[2],failed to respond
same,cumulative food intake,[3]; FIG. 5a,"small, but significant decrease"
same,weight gain,"[3]; FIG. 5b,c",profound inhibition
same,water intake,[3]; FIG. 5d,did not affect
